What was measured:
GFP-PPARβ LBD = biological target: T1, GFP-PPARβ LBD (Homo sapiens, UniProt Q03181); assay: GFP-affinity purification of cerebellar lysate with GFP-PPARβ LBD, then EI-GCMS; assay type: binding; settings: PPARβ pulled-down cerebellar lysate
T1 construct: incubated with recombinant GFP-PPARα LBD and GFP-PPARβ LBD proteins
T1 sequence (Q03181 211-439 limits assumed): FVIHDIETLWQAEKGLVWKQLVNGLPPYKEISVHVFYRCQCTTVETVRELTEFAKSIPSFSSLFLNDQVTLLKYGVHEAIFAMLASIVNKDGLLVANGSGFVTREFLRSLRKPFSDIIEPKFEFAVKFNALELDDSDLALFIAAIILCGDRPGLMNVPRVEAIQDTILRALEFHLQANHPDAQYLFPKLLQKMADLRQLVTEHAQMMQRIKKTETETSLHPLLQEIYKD
Protocol: To test that, we performed a GFP-based affinity purification procedure (25,29) in which cerebellar lysate of wild-type cerebellum was incubated with recombinant GFP-PPARα LBD and GFP-PPARβ LBD proteins, then passed through GFP column, eluted, fractionated with chloroform-methanol procedure, and finally analyzed for small molecules in the chloroform fraction with electron ionization gas chromatography (EI-GCMS) method as described elsewhere (29). […] A part of the eluted fraction was electrophoresed and stained with Coomassie blue to nullify the loading error of GFP-PPARαLBD and GFP-PPARβ LBD used for affinity purification.
GCMS analyses: Ligand detection: A JEOL GCMate II (JEOL USA, Peabody Mass.) mass spectrometer was used in ligand detection experiments. The gas chromatograph (GC) was an Agilent 6890Plus (Wilmington Del.) equipped with a G1513A auto-injector with 100 vial sample tray connected to a G1512A controller. The gas chromatography column was a fused silica capillary column with a nonpolar 5% phenyl 95% dimethylpolysiloxane phase (Agilent HP-5 ms), 30 meters long, 0.25 mm internal diameter, 0.25 μm film thickness. The carrier gas was Helium (99.9995% Research Grade) run through a STG triple filter (Restek Corp.) at a constant flow rate 1.1 mL/min. […]

GFP-PPARα LBD = biological target: T2, GFP-PPARα LBD (Homo sapiens, UniProt Q07869); assay: GFP-affinity purification of cerebellar lysate with GFP-PPARα LBD, then EI-GCMS; assay type: binding; settings: PPARα pulled-down cerebellar lysate
T2 construct: incubated with recombinant GFP-PPARα LBD and GFP-PPARβ LBD proteins
T2 sequence (Q07869 239-466 limits assumed): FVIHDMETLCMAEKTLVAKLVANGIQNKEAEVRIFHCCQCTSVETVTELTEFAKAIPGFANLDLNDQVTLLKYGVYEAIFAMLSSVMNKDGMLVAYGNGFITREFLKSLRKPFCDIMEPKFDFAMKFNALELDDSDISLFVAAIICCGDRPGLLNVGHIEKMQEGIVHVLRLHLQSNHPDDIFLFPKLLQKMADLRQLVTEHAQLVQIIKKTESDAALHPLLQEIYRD
Source text: Identification of unique cerebellar ligands of PPARβ: PPARβ regulates the expression of myelin genes in vitro in cultured oligodendrocytes (19). However, it is not known if PPARβ regulates the expression of these genes in cerebellum, one of the heavily myelinated regions of the brain. To test the expression of myelin proteins, first we performed dual immunofluorescence analyses of myelin marker MBP together with PPARβ in the cerebellar tissue of wild-type (n=3), Pparb-null (n=3) and Ppara-null (n=3) mice. […] Moreover, DAB immunostaining of MBP and immunoblot analyses of other myelin genes including PLP and MOG have corroborated that PPARβ indeed is involved in the expression of myelin genes in cerebellum. […] To test that, we performed a GFP-based affinity purification procedure (25,29) in which cerebellar lysate of wild-type cerebellum was incubated with recombinant GFP-PPARα LBD and GFP-PPARβ LBD proteins, then passed through GFP column, eluted, fractionated with chloroform-methanol procedure, and finally analyzed for small molecules in the chloroform fraction with electron ionization gas chromatography (EI-GCMS) method as described elsewhere (29). […] Accordingly, we detected two matching bands of both GFP-PPARαLBD and GFP-PPARβLBD, both having mol. wt. of 64 kDa, negating the possibility of unequal loading of sample in MS column. […]

GFPflpparβ = biological target: T3, GFPflpparβ (Mus musculus, UniProt P35396); assay: GFP-affinity purification and GCMS of Pparb-null OPCs transduced with GFPflpparβ; assay type: binding
T3 construct: host or cells: Pparb-null mouse primary OPCs (lentiviral transduction)
T3 sequence (P35396 1-440): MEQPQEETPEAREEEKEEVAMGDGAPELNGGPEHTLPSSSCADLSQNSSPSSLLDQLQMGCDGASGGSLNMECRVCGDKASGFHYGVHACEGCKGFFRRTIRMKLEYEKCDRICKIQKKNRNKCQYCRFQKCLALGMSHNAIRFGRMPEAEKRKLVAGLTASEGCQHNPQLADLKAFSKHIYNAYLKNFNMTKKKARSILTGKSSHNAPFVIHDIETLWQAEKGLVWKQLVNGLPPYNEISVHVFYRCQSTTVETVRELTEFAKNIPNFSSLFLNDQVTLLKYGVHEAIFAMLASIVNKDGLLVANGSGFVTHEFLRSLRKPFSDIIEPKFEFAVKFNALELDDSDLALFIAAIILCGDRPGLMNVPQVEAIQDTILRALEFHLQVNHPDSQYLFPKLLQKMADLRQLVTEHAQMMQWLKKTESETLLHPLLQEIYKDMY
Source text: Therefore, next, we wanted to confirm these interactions in vitro in a cell-bound system. To test that, Pparb-null mouse primary OPCs were isolated from P1 murine neonates, infected with viral particles of GFP, GFPflpparb, GFPV304Mpparb, GFPH412Lpparb constructs for 48 hrs. After that, OPCs were homogenized, passed through the GFP-affinity column, eluted, fractionated with chloroform-methanol, and finally analyzed with GCMS to quantify these ligands. […] Throughout these analyses, we used dodecane as an internal standard.
Sample preparation: After treatment, mouse primary OPCs were homogenized in ice-cold nondetergent hypotonic buffer [10 mM HEPES (pH 7.9), 1.5 mM MgCl2, 10 mM KCl, 100 mM DTT, protease and phosphatase inhibitor cocktail]. After 10 min of additional incubation in the hypotonic buffer, the homogenate was centrifuged at 8,000 g at 4° C. for 10 min. […] The organic phase was collected, evaporated in the speedvac, reconstituted with 30 μL chloroform, and finally analyzed with GCMS. […] After that, the eluate was collected from the column with 5M NaCl solution, concentrated with PD-10 desalting column and analyzed for GCMS.

mouse primary OPCs [1] = assay: Double immunofluorescence (NG2/MBP, A2B5/PLP): differentiation of OPCs to oligodendrocytes; assay type: cell-based; settings: 1 μM DBB, 0.5 μM DBP, 0.5 μM MePA, 24 hrs
Protocol: (§1) FIG. 1A-1T. The role of DBB, DBP and MePA in the differentiation of OPC into oligodendrocytes and myelination. […] Briefly, mouse primary OPCs were treated with different concentrations of molecules for 1 hr, lysed and measured for DNA probe binding activity of PPARβ. […] Benzene was included as negative control. **p<0.01 vs. control for PLP, MOG, MBP, and CNPase. Results are mean±SD of three independent experiments. (FIG. 1G) Immunoblot followed by (FIG. 1H) relative densitometric analyses of PLP and MBP in mouse primary OPCs treated with increasing concentrations of DBB for 18 hrs. Band intensity was measured with image J software and then normalized with respective actin band. *p<0.05 (=0.041) vs. PLP control and *p<0.05 (=0.026) vs. MBP control. […] (N) Mean fluorescence intensity (MFI) of MBP was measured from total 15 cells per group with three cells from 5 different images per group. […] (FIG. 1Q) Mean fluorescence intensity (MFI) of MBP was measured from total 15 cells per group with three cells from 5 different images per group. […] (FIG. 1T) Numbers of MBP-ir cells of different treatment groups were counted per sq.mm of nanofiber matrix and presented as a histogram. […]
DBB, DBP and MePA stimulate the differentiation of OPC to oligodendrocytes and promote myelination. […] After that, cells were lysed and assessed for PPRE-luciferase activity. […]

mouse primary OPCs [2] = assay: Myelination of OPCs on polycaprolactone nanofiber matrix (MBP staining); assay type: cell-based; settings: 1 μM DBB, 0.5 μM DBP, 0.5 μM MePA
Protocol: as §1
The essential role of PPARβ in DBB-, DBP- and MePa-mediated differentiation of OPCs to oligodendrocytes and myelination. […] After that, PPRE-luciferase activity was assessed. […]

PPARβ LBD = biological target: T4, PPARβ LBD (Homo sapiens, UniProt Q03181); assay: TR-FRET (Lanthascreen PPAR-β coactivator assay)
T4 sequence (Q03181 211-439 limits assumed): T1 sequence (Q03181 211-439 limits assumed)
Protocol: The shift of each melting curve was calculated by subtracting the melting temperature (Tm) of PPARβ protein+ligand with Tm of PPARβ protein alone. Any shift (ΔTm) with more than 2° C. would be considered as significant.
TR-FRET analysis: TR-FRET assay was performed using Lanthascreen TR-FRET PPAR-β coactivator assay kit (Cat #PV4685). […] The entire reaction was set up in corning 96 well-plate followed by incubation in a dark place for 30 mins, and then analyzed “Victor X5” machine equipped with dichroic mirror. The excitation wavelength and emission wavelength were set at 340 nm and 540 nm wavelength respectively.

[3] = adjusted to internal standard peak

For `CCCCCCCCCCCCCCCC(=O)OC` [MePA, Methyl palmitate], the “% RA” value (GFP-PPARβ LBD) was 40.678%, the Relative abundance (GFP-PPARβ LBD; [3]) was 0.4068 and the “% RA” value (GFP-PPARα LBD) was 0%. For the same compound, the Relative abundance (GFP-PPARα LBD; [3]) was 0, the “Adjusted Peak Area” value (GFPflpparβ; ligand peak area divided by dodecane peak) was 0.0108 and the RA (GFPflpparβ; relative abundance) was 1. The “differentiation of OPCs into oligodendrocytes” value (mouse primary OPCs [1]) was “stimulate the differentiation of OPCs into oligodendrocytes”, the “MBP-ir cell bodies per sq.mm of nanofiber matrix (maturation of oligodendrocytes)” value (mouse primary OPCs [2]) was “stimulated the maturation of oligodendrocytes” and the “myelin formation on nanofibers” value (mouse primary OPCs [2]; 24 hrs) was “promote myelin formation”. The EC50 (PPARβ LBD) was 72 nM.
